Results reported in patent publication US20250197387A1, “BCL-XL DEGRADERS AND USES THEREOF” (Kymera Therapeutics, Inc., priority 2021, published 2025).
Where two headings read alike, the source gives them in different places.

What was measured:
[1] = molecular target: T1, BCL-XL (Homo sapiens, UniProt Q07817); assay: Bcl-xL ELISA degradation in MOLT-4 cells, 6 h; format: cell-based; settings: for DC50: read-out: Bcl-xL ELISA in MOLT-4 degradation 6 h: Mean external-Abs DC50
T1 construct: endogenous in cells; host or cells: MOLT-4
T1 sequence (Q07817 whole entry): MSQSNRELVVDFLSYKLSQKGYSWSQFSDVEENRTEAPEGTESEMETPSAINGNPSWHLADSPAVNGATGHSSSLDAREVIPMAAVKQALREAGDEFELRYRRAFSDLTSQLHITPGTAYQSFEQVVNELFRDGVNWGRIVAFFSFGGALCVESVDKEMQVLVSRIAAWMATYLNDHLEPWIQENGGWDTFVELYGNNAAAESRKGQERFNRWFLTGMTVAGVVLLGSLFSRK
Experimental: The letter codes for BCL-XL DC50 include: A (<0.01 μM); B (0.01-0.1 μM); C (>[…]); D (>0.5-1.0 μM); and E (>1.0 μM). The letter codes for Dmax % include A (>75%); B (50 to 75%); C (<50%).

[2] = system: MOLT-4 cells; assay: CTG (CellTiter-Glo) cell viability assay, MOLT-4; format: cell-based; settings: Homo sapiens, 3 day incubation, read-out: CTG Cell Viability Assay - MOLT-4 3 day: Average external-IC50
Experimental: Compound-mediated viability effect on MOLT-4 and Caki-2 was quantitatively determined using the CellTiter-Glo® Luminescent Cell Viability Assay kit from Promega (Catalog number G7570) following manufacturer's recommended procedures. Briefly, MOLT-4 and Caki-2 cells were seeded into 384 well plates (Grenier Bio-One, Catalog number 781080) with a density of 10,000 cells per well. Compounds were then added to the assay plate with final top concentration of 10 μM and 1:3 dilution series with total of 9 doses. The final DMSO concentration is normalized to 0.2%. The assay plates were incubated at 37° C., for 3 days under 5% CO2. Then the assay plate was equilibrated at room temperature for 10 minutes. To determine cell viability, 30 uL CellTiter Glo reagent was added to each well and the assay plate was centrifuged at 1000 rpm for 30 second, incubated at room temperature for 10 min, and analyzed by detecting the luminescence using a multimode plate reader (EnVision 2105, PerkinElmer). The data was then analyzed by software Prism 7.0 from GraphPad and the dose response curves are fit using a three-parameter logistic equation to calculate IC50.
The letter codes for MOLT-4 IC50 include: A (<0.1 μM); B (0.1-1.0 μM); C (>1.0-3.0 μM); and D (>3.0 μM). The letter codes for Caki-2 IC50 include: A (<0.1 μM); B (0.1-1.0 μM); C (>1.0-10.0 μM); and D (>10.0 μM).

SMILES	Dmax [1]	DC50 [1]	IC50 ([2]; MOLT-4, 72 h)	IC50 ([2]; 72 h)
Cc1ncsc1-c1ccc([C@H](C)NC(=O)[C@@H]2C[C@@H](O)CN2C(=O)[C@@H](c2cc(N3CCN(c4ccc(S(=O)(=O)NC(=O)c5nc(N6CCc7cccc(C(=O)Nc8nc9ccccc9s8)c7C6)ccc5-c5cnn(CC6CCCCC6)c5C)cc4)CC3)no2)C(C)C)cc1 [I-214]	> 75%	10 to 100 nM	100 to 1000 nM	–
Cc1ncsc1-c1ccc([C@H](C)NC(=O)[C@@H]2C[C@@H](O)CN2C(=O)[C@@H](NC(=O)CCCCN(C)CCCCNC(=O)c2nc(N3CCc4cccc(C(=O)Nc5nc6ccccc6s5)c4C3)ccc2-c2cnn(CC3CCCCC3)c2C)C(C)(C)C)cc1 [I-221]	< 50%	> 1000 nM	> 3000 nM	–
Cc1ncsc1-c1ccc([C@H](CC(=O)N(C)CCCCCC(=O)N2CCN(CC[C@H](CSc3ccccc3)Nc3ccc(S(=O)(=O)NC(=O)c4ccc(N5CCN(CC6=C(c7ccc(Cl)cc7)CCC(C)(C)C6)CC5)cc4)cc3S(=O)(=O)C(F)(F)F)CC2)NC(=O)[C@@H]2C[C@@H](O)CN2C(=O)[C@@H](NC(=O)C2(F)CC2)C(C)(C)C)cc1 [I-147]	–	–	1000 to 3000 nM	–
Cc1ncsc1-c1ccc([C@H](C)NC(=O)[C@@H]2C[C@@H](O)CN2C(=O)[C@@H](NC(=O)N2CC(CN3CCC(CNC(=O)c4nc(N5CCc6cccc(C(=O)Nc7nc8ccccc8s7)c6C5)ccc4-c4cnn(CC5CCCCC5)c4C)CC3)C2)C(C)(C)C)cc1 [I-153]	–	–	1000 to 3000 nM	–
Cc1ncsc1-c1ccc([C@H](C)NC(=O)[C@@H]2C[C@@H](O)CN2C(=O)[C@@H](NC(=O)CCCCCCCCC(=O)N(C)CC#Cc2ccc(OCCCc3ccc(N4CCc5cccc(C(=O)Nc6nc7ccccc7s6)c5C4)nc3C(=O)O)c(F)c2)C(C)(C)C)cc1 [I-148]	–	–	< 100 nM	–
Cc1ncsc1-c1ccc([C@H](C)NC(=O)[C@@H]2C[C@@H](O)CN2C(=O)C(c2cc(N3CC4(CCN(CCNC(=O)c5nc(N6CCc7cccc(C(=O)Nc8nc9ccccc9s8)c7C6)ccc5-c5cnn(CC6CCCCC6)c5C)CC4)C3)no2)C(C)C)cc1 (stereo partly drawn) [I-165]	–	–	100 to 1000 nM	–
Cc1ncsc1-c1ccc([C@H](C)NC(=O)[C@@H]2C[C@@H](O)CN2C(=O)[C@H](c2cc(OCC3CCN(CCNC(=O)c4nc(N5CCc6cccc(C(=O)Nc7nc8ccccc8s7)c6C5)ccc4-c4cnn(CC5CCCCC5)c4C)CC3)no2)C(C)C)cc1 [I-288]	50 to 75%	500 to 1000 nM	100 to 1000 nM	–
Cc1ncsc1-c1ccc([C@H](C)NC(=O)[C@@H]2C[C@@H](O)CN2C(=O)[C@@H](NC(=O)CCCCCCCOc2nc(N3CCc4cccc(C(=O)Nc5nc6ccccc6s5)c4C3)ccc2-c2cnn(CC3CCCCC3)c2C)C(C)(C)C)cc1 [I-218]	< 50%	–	> 3000 nM	–
Cc1cc(N(CCCC(=O)N(C)CCCCOCC(=O)N[C@H](C(=O)N2C[C@H](O)C[C@H]2C(=O)N[C@@H](C)c2ccc(-c3scnc3C)cc2)C(C)(C)C)c2ccc(-c3cnn(CC4CCCCC4)c3C)c(C(=O)O)n2)nnc1Nc1nc2ccccc2s1 [I-157]	–	–	> 3000 nM	–
Cc1ncsc1-c1ccc([C@H](C)NC(=O)[C@@H]2C[C@@H](O)CN2C(=O)[C@@H](NC(=O)Cc2ccc(S(=O)(=O)NC(=O)c3nc(N4CCc5cccc(C(=O)Nc6nc7ccccc7s6)c5C4)ccc3-c3cnn(CC4CCCCC4)c3C)cc2)C(C)(C)C)cc1 [I-287]	> 75%	10 to 100 nM	100 to 1000 nM	–
Cc1ncsc1-c1ccc([C@H](C)NC(=O)[C@@H]2C[C@@H](O)CN2C(=O)[C@@H](NC(=O)CCCCCC(=O)N2CCN(CC[C@H](CSc3ccccc3)Nc3ccc(S(=O)(=O)NC(=O)c4cccc(N5CCc6cccc(C(=O)Nc7nc8ccccc8s7)c6C5)n4)cc3S(=O)(=O)C(F)(F)F)CC2)C(C)(C)C)cc1 [I-160]	–	–	> 3000 nM	–
Cc1ncsc1-c1ccc([C@H](C)NC(=O)[C@@H]2C[C@@H](O)CN2C(=O)[C@@H](NC(=O)CN(C)CCCS(=O)(=O)NC(=O)c2nc(N3CCc4cccc(C(=O)Nc5nc6ccccc6s5)c4C3)ccc2-c2cnn(CC3CCCCC3)c2C)C(C)(C)C)cc1 [I-220]	> 75%	< 10 nM	–	< 100 nM
Cc1ncsc1-c1ccc(CNC(=O)[C@@H]2C[C@@H](O)CN2C(=O)[C@@H](NC(=O)C2(F)CC2)C(C)(C)C)c(OCC(=O)N(C)CC[C@H](CSc2ccccc2)Nc2ccc(S(=O)(=O)NC(=O)c3ccc(N4CCN(CC5=C(c6ccc(Cl)cc6)CCC(C)(C)C5)CC4)cc3)cc2S(=O)(=O)C(F)(F)F)c1 [I-161]	–	–	> 3000 nM	–
Cc1ncsc1-c1ccc([C@H](C)NC(=O)[C@@H]2C[C@H](O)CN2C(=O)[C@@H](NC(=O)CCCCCS(=O)(=O)NC(=O)c2nc(N3CCc4cccc(C(=O)Nc5nc6ccccc6s5)c4C3)ccc2-c2cnn(CC34CC5CC(CC(C5)C3)C4)c2C)C(C)(C)C)cc1 [I-286]	50 to 75%	10 to 100 nM	100 to 1000 nM	–
Cc1ncsc1-c1ccc([C@H](C)NC(=O)[C@@H]2C[C@@H](O)CC2C(=O)[C@@H](NC(=O)CCCC(=O)N2CCN(C(=O)COC3(Cn4cc(-c5ccc(N6CCc7cccc(C(=O)Nc8nc9ccccc9s8)c7C6)nc5C(=O)O)cn4)CCCCC3)CC2)C(C)(C)C)cc1 (stereo partly drawn) [I-149]	–	–	> 3000 nM	–
Cc1ncsc1-c1ccc([C@H](C)NC(=O)[C@@H]2C[C@@H](O)CN2C(=O)[C@@H](NC(=O)COC2CCN(CCNC(=O)c3nc(N4CCc5cccc(C(=O)Nc6nc7ccccc7s6)c5C4)ccc3-c3cnn(CC4CCCCC4)c3C)CC2)C(C)(C)C)cc1 [I-163]	–	–	100 to 1000 nM	–
Cc1ncsc1-c1ccc(CNC(=O)[C@@H]2C[C@@H](O)CN2C(=O)[C@@H](NC(=O)C2(F)CC2)C(C)(C)C)c(OC2CCN(CCNC(=O)c3nc(N4CCc5cccc(C(=O)Nc6nc7ccccc7s6)c5C4)ccc3-c3cnn(CC4CCCCC4)c3C)CC2)c1 [I-215]	50 to 75%	100 to 500 nM	100 to 1000 nM	–
Cc1ncsc1-c1ccc(CNC(=O)[C@@H]2C[C@@H](O)CN2C(=O)[C@@H](NC(=O)C2(F)CC2)C(C)(C)C)c(OCC(C)N2CCN(CC[C@H](CSc3ccccc3)Nc3ccc(S(=O)(=O)NC(=O)c4ccc(N5CCN(CC6=C(c7ccc(Cl)cc7)CCC(C)(C)C6)CC5)cc4)cc3S(=O)(=O)C(F)(F)F)CC2)c1 (stereo partly drawn) [I-155]	–	–	< 100 nM	–
Cc1ncsc1-c1ccc(CNC(=O)[C@@H]2C[C@@H](O)CN2C(=O)[C@@H](NC(=O)C2(F)CC2)C(C)(C)C)c(OCC2CN(C3CCC(NC(=O)c4nc(N5CCc6cccc(C(=O)Nc7nc8ccccc8s7)c6C5)ccc4-c4cnn(CC5CCCCC5)c4C)CC3)C2)c1 (stereo partly drawn) [I-216]	< 50%	> 1000 nM	1000 to 3000 nM	–
Cc1ncsc1-c1ccc([C@H](C)NC(=O)[C@@H]2C[C@@H](O)CN2C(=O)[C@@H](c2cc(OC3CCN([C@H]4CC[C@H](NC(=O)c5nc(N6CCc7cccc(C(=O)Nc8nc9ccccc9s8)c7C6)ccc5-c5cnn(CC6CCCCC6)c5C)CC4)CC3)no2)C(C)C)cc1 [I-313]	< 50%	> 1000 nM	1000 to 3000 nM	–
Cc1ncsc1-c1ccc([C@H](C)NC(=O)[C@@H]2C[C@@H](O)CN2C(=O)[C@@H](NC(=O)CCCC(=O)N(C)CCCC2(Cn3ncc(-c4ccc(N5CCc6cccc(C(=O)Nc7nc8ccccc8s7)c6C5)nc4C(=O)O)c3C)CCCCC2)C(C)(C)C)cc1 [I-150]	–	–	100 to 1000 nM	–
Cc1ncsc1-c1ccc(CNC(=O)[C@@H]2C[C@@H](O)CN2C(=O)[C@@H](NC(=O)C2(F)CC2)C(C)(C)C)c(OCCCC(=O)N(C)CC[C@H](CSc2ccccc2)Nc2ccc(S(=O)(=O)NC(=O)c3ccc(N4CCN(CC5=C(c6ccc(Cl)cc6)CCC(C)(C)C5)CC4)cc3)cc2S(=O)(=O)C(F)(F)F)c1 [I-146]	–	–	100 to 1000 nM	–
Cc1ncsc1-c1ccc([C@H](C)NC(=O)[C@@H]2C[C@@H](O)CN2C(=O)[C@@H](NC(=O)C2(F)CC2)C(C)(C)C)c(OCCN2CCN(CC[C@H](CSc3ccccc3)Nc3ccc(S(=O)(=O)NC(=O)c4ccc(N5CCN(CC6=C(c7ccc(Cl)cc7)CCC(C)(C)C6)CC5)cc4)cc3S(=O)(=O)C(F)(F)F)CC2)c1 [I-154]	–	–	1000 to 3000 nM	–
Cc1ncsc1-c1ccc([C@H](C)NC(=O)[C@@H]2C[C@@H](O)CN2C(=O)[C@H](NC(=O)CCCCCCCS(=O)(=O)NC(=O)c2nc(N3CCc4cccc(C(=O)Nc5nc6ccccc6s5)c4C3)ccc2-c2cnn(CC3CCOCC3)c2C)C(C)(C)C)cc1 [I-166]	–	–	100 to 1000 nM	–
Cc1ncsc1-c1ccc([C@@H](CC(=O)N(C)CCCCCC(=O)N2CCN(CC[C@H](CSc3ccccc3)Nc3ccc(S(=O)(=O)NC(=O)c4ccc(N5CCN(CC6=C(c7ccc(Cl)cc7)CCC(C)(C)C6)CC5)cc4)cc3S(=O)(=O)C(F)(F)F)CC2)NC(=O)[C@@H]2C[C@@H](O)CN2C(=O)[C@@H](NC(=O)C2(F)CC2)C(C)(C)C)cc1 [I-159]	–	–	100 to 1000 nM	–
Cc1ncsc1-c1ccc([C@H](C)NC(=O)[C@@H]2C[C@@H](O)CN2C(=O)[C@@H](NC(=O)CN2CCN(CCNC(=O)c3nc(N4CCc5cccc(C(=O)Nc6nc7ccccc7s6)c5C4)ccc3-c3cnn(CC4CCCCC4)c3C)CC2)C(C)(C)C)cc1 [I-164]	–	–	100 to 1000 nM	–
